What was measured:
Conditions in all cases: 1 hr
AMPK = AMPK activity and Thr172 phosphorylation in HEK293 cells; type: cell-based, human
Procedure: Figure 1 SU6656 Activates AMPK but Not AMPK-Related Kinases (A) HEK293 cells were incubated with the indicated concentrations of SU6656 or berberine (300 μM) for 1 hr; total AMPK activity was assayed in immunoprecipitates (top; mean ± SEM, n = 4), and phosphorylation of AMPK (Thr172), ACC (Ser80), and Raptor (Ser792) analyzed by western blotting (bottom; n = 2). (B) HEK293 cells were incubated with 100 μM SU6656 (1 hr), AMPK complexes containing α1, α2, β1, and β2 immunoprecipitated using isoform-specific antibodies, and AMPK activity measured (mean ± SEM, n = 4). (C) HeLa cells stably expressing LKB1 ([Fogarty et al., 2010]) were incubated with 100 μM SU6656 for 1 hr, AMPK or individual ARKs immunoprecipitated, and kinase assays carried out (antibodies that distinguish MARK2/MARK3 were not available, so they were assayed together). Results are means ± SEM (n = 2). In all panels, asterisks indicate significant differences from controls without SU6656. *p < 0.05, **p < 0.01, ****p < 0.0001. […]
Endogenous AMPK was immunoprecipitated using the specified antibodies (for total AMPK, an equal mixture of anti-α1 and –α2 antibodies) and assayed at 200 μM ATP ([Hardie et al., 2000], [Towler et al., 2008]) using the AMARA peptide ([Dale et al., 1995]) as substrate, except for assays of allosteric activation by AMP (Figure 5A) where the SAMS peptide was used as substrate with 2 mM ATP ([Gowans et al., 2013]). The AMPK-related kinases SIK1, SIK2, SIK3, SNARK, MARK2/3 and MARK4 were immunoprecipitated and assayed as previously described ([Lizcano et al., 2004]) in lysates of Hela cells stably expressing LKB1 ([Fogarty et al., 2010]). LKB1 was assayed using the LKBtide peptide as substrate ([Sakamoto et al., 2004]).

HEK293 cells = test: Cellular AMP:ATP and ADP:ATP ratios; type: cell-based, human
Procedure: (B) WT or RG cells were treated as in (A) and nucleotides extracted for analysis (mean ± SD, n = 3). […] (E) (See also Figure S2) Time courses of cellular oxygen uptake before and after addition of the indicated concentrations of sorafenib (SO, μM), SU6656 (100 μM) or phenformin (PHEN, 10 mM) (mean ± SEM, n = 4). (F) Effect of various concentrations of sorafenib or phenformin (10 mM) on activation (top, mean ± SEM, n = 3) or phosphorylation (bottom) of AMPK in cells expressing wild-type AMPK-γ2 (WT) or the R531G mutant AMPK-γ2 (RG). In all panels, asterisks show significant differences from DMSO controls (ns, not significant). In (B), daggers (†) show significant differences between results in WT and RG cells. *p < 0.05, **p < 0.01, ***p < 0.001, ****p < 0.0001, ^††††p < 0.0001.
Cells were incubated for 60 min and AMPK activity measured; results in the top panel are means ± SEM (n = 8), with significant differences from the DMSO control indicated (ns, not significant). The bottom panels show western blots from the same experiment (n = 2). (B) Analysis of AMP:ATP and ADP:ATP ratios from a parallel experiment to that in (A). Results are means ± SEM (n = 3), with significant differences from the DMSO control indicated. *p < 0.05, **p < 0.01, ****p < 0.0001.
The levels of AMP, ADP and ATP were measured using a TSQ Quantiva interfaced with Ultimate 3000 Liquid Chromatography system (ThermoScientific), equipped with a porous graphitic carbon column (HyperCarb 30x1mm ID 3 μm; Part No: C-35003-031030, Thermo-Scientific). Mobile phase buffer A consisted of 0.3% (v/v) formic acid adjusted to pH 9 with ammonia prior to a 1:10 dilution. Mobile phase buffer B was 80% (v/v) acetonitrile. The column was maintained at a controlled temperature of 30°C and was equilibrated with 10% buffer B for 5 minutes at a constant flow rate of 0.06 mL/min. Aliquots of 1 μL of each sample were loaded onto the column and compounds eluted with a linear gradient of 10%-60% buffer B over 9 min. Buffer B was then increased to 100% within 1 min, and the column washed for 5 min with 100% Buffer B. Eluents were sprayed into the TSQ Quantiva using Ion Max NG ion source with ion transfer tube temperature set to 350°C and vaporizer temperature 125°C. The TSQ Quantiva was run in negative mode with a spray voltage of 2600, sheath gas 40 and Aux gas 10. Levels of ATP, ADP and AMP were measured using multiple reactions monitoring mode (MRM) with optimised collision energies and radio frequencies previously determined by infusing pure compounds. Three transitions were used to monitor each of the three compounds, ATP (505.92>158.98, 505.92>408.12 and 505.92>426.12), ADP (426.98>158.98, 426.98>328.78 and 426.98>409.09) and AMP (345.96>134.20, 345.96>151.27 and 345.96>211.12).

[1] = biological target: T1, endogenous full-length α1 complexes (Homo sapiens, UniProt Q13131); test: Activity of endogenous full-length α1 complexes in HEK293 cells; type: cell-based
T1 construct: endogenous in cells
T1 sequence (Q13131 whole entry): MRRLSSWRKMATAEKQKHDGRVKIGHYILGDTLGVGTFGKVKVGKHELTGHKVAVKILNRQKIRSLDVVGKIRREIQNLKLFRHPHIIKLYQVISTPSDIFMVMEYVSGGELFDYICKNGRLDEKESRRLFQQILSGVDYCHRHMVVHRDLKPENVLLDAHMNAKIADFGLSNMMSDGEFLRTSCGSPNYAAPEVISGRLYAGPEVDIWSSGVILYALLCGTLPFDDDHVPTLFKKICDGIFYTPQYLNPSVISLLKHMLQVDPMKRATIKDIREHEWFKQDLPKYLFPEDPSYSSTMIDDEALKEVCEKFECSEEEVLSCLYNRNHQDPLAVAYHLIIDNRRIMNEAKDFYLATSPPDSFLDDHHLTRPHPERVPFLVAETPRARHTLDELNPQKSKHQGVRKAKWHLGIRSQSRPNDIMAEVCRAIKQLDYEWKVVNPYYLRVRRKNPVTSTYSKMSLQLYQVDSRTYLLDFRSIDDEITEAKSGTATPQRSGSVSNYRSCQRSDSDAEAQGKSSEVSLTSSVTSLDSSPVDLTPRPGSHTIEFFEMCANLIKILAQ
T1 sequence (P54619 whole entry partner): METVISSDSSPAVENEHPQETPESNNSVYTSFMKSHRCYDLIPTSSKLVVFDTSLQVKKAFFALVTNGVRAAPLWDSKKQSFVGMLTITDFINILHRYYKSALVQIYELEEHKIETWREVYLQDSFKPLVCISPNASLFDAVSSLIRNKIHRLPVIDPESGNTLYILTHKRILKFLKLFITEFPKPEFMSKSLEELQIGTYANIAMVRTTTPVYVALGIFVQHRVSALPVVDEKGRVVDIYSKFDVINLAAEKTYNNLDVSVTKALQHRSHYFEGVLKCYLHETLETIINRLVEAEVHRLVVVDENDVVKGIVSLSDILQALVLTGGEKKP
Excerpt: We next expressed an FLAG-tagged α1 kinase domain (α1-KD, residues 1–312) by transient transfection in HEK293 cells, treated the cells with various AMPK activators, and then assayed both the expressed α1-KD (precipitated using anti-FLAG) and endogenous full-length α1 complexes (precipitated using anti-α1 antibodies recognizing an epitope outside the α1-KD). […] This was also observed with A23187, as expected since this ionophore increases intracellular Ca^2+ and activates the alternate upstream kinase CaMKK2.
The α1-KD was precipitated using anti-FLAG and endogenous AMPK complexes using anti-α1 antibody, and activity determined. Results (mean ± SD, n = 2) are expressed relative to activities in DMSO controls. (B) Western blots (n = 2) using the indicated antibodies; samples from experiment in (A). (C) DNAs encoding FLAG-tagged AMPK-α1 (WT or AT mutant) were expressed by transient transfection in HEK293 cells, the cells treated with increasing concentrations of SU6656 for 1 hr, AMPK complexes precipitated with anti-FLAG, and activity measured. Results (mean ± SD, n = 3) are expressed relative to the DMSO control. […] Results (mean ± SD, n = 3) are expressed relative to the DMSO control. **p < 0.01, ***p < 0.001, ****p < 0.0001, ^†††p < 0.001; ns, not significant.

CN(C)S(=O)(=O)c1ccc2c(c1)/C(=C/c1cc3c([nH]1)CCCC3)C(=O)N2 [SU6656]
activation of AMPK complexes by subunit isoform (AMPK; 100 μM, isoform-specific antibodies): activate AMPK complexes containing the α1, α2, β1, and β2 subunit isoforms
AMPK activity / Thr172 phosphorylation (AMPK): caused activation of AMPK
cellular AMP:ATP and ADP:ATP ratios (HEK293 cells): no significant effects
kinase activity / Thr172 phosphorylation [1]: increased kinase activity

COc1ccc2cc3[n+](cc2c1OC)CCc1cc2c(cc1-3)OCO2 [berberine]
AMPK activity / Thr172 phosphorylation (AMPK): much smaller degree of AMPK activation
cellular AMP:ATP and ADP:ATP ratios (HEK293 cells): robustly increased
kinase activity / Thr172 phosphorylation [1]: doing this with the endogenous complexes

CNC(=O)c1cc(Oc2ccc(NC(=O)Nc3ccc(Cl)c(C(F)(F)F)c3)cc2)ccn1 [sorafenib]
AMPK activity / Thr172 phosphorylation (AMPK): activated AMPK
cellular AMP:ATP and ADP:ATP ratios (HEK293 cells): increased cellular AMP:ATP and ADP:ATP ratios to a similar or even greater extent than phenformin
